Data from US20110166112A1, “METHOD FOR STIMULATING PLATELET PRODUCTION” (Eisai, Inc., priority 2009, published 2011).

Tested on: subjects with chronic ITP
Test: Combined 28-day and 6-month rollover studies of E5501: safety (TEAEs, serious TEAEs, thromboembolic events, neoplasms, liver toxicity, discontinuations)
Assay type: in vivo, human
Description: Primary Endpoint: The primary endpoint was to assess the safety and tolerability to E5501, including AEs and clinical laboratory parameters, over the 6 additional months of treatment.
In this way, safety data reflect each subject's complete duration of exposure to E5501 starting with lead-in the previous study and continuing into the current study.
Following Protocol Amendment 4, the current study contained a flexible dose regimen; therefore, this study was considered to have an open-label, uncontrolled, single-arm design. […] This was the method used to assess safety. • Grouping method B was based on both treatment received and day 28 platelet response to study drug in Study the previous study. This was the method used for the analysis of efficacy for the FAS and the SE population.
Overall Adverse Events. […] The primary focus is on summary statistics for the entire safety population and provides an overall safety profile for E5501. The summary statistics for each group, e.g., lower ⅓, middle ⅓ and upper ⅓ average daily dose levels, is secondary and provides further safety information across the 3 dose levels.

[1] = Lower ⅓ dose (2.5-<8.85 mg), N=22

O=C(Nc1nc(-c2cc(Cl)cs2)c(N2CCN(C3CCCCC3)CC2)s1)c1cnc(N2CCC(C(=O)O)CC2)c(Cl)c1 [E5501, 1-(3-chloro-5-{[4-(4-chlorothiophen-2-yl)-5-(4-cyclohexylpiperazin-1-yl)thiazol-2-yl]carbamoyl}pyridine-2-yl)piperidine-4-carboxylic acid]
tolerability and safety profile (6-month treatment period): well tolerated and demonstrated a favorable safety profile
Any Serious TEAE, n (%) of subjects (E5501 Total, N=64): 5 (7.8) n (%)
Serious TEAE Cerebrovascular accident, n (%) of subjects (E5501 Total, N=64): 1 (1.6) n (%)
Serious TEAE Chest pain, n (%) of subjects (E5501 Total, N=64): 1 (1.6) n (%)
Serious TEAE Diarrhoea, n (%) of subjects (E5501 Total, N=64): 1 (1.6) n (%)
Serious TEAE Haemorrhage intracranial, n (%) of subjects (E5501 Total, N=64): 1 (1.6) n (%)
Serious TEAE Lethargy, n (%) of subjects (E5501 Total, N=64): 1 (1.6) n (%)
Serious TEAE Mitral valve incompetence, n (%) of subjects (E5501 Total, N=64): 1 (1.6) n (%)
Serious TEAE Myocardial infarction, n (%) of subjects (E5501 Total, N=64): 1 (1.6) n (%)
Serious TEAE Nausea, n (%) of subjects (E5501 Total, N=64): 1 (1.6) n (%)
Serious TEAE Pelvic venous thrombosis, n (%) of subjects (E5501 Total, N=64): 1 (1.6) n (%)
Serious TEAE Platelet count decreased, n (%) of subjects (E5501 Total, N=64): 1 (1.6) n (%)
Serious TEAE Pneumonia, n (%) of subjects (E5501 Total, N=64): 1 (1.6) n (%)
Serious TEAE Pyrexia, n (%) of subjects (E5501 Total, N=64): 1 (1.6) n (%)
Serious TEAE Thrombocytopenia, n (%) of subjects (E5501 Total, N=64): 1 (1.6) n (%)
Serious TEAE Transient ischaemic attack, n (%) of subjects (E5501 Total, N=64): 1 (1.6) n (%)
Serious TEAE Vomiting, n (%) of subjects (E5501 Total, N=64): 2 (3.1) n (%)
Serious TEAE, SOC Blood and lymphatic system disorders, n (%) of subjects (E5501 Total, N=64): 1 (1.6) n (%)
Serious TEAE, SOC Cardiac disorders, n (%) of subjects (E5501 Total, N=64): 2 (3.1) n (%)
Serious TEAE, SOC Gastrointestinal disorders, n (%) of subjects (E5501 Total, N=64): 2 (3.1) n (%)
Serious TEAE, SOC General disorders and administration site conditions, n (%) of subjects (E5501 Total, N=64): 1 (1.6) n (%)
Serious TEAE, SOC Infections and infestations, n (%) of subjects (E5501 Total, N=64): 1 (1.6) n (%)
Serious TEAE, SOC Investigations, n (%) of subjects (E5501 Total, N=64): 1 (1.6) n (%)
Serious TEAE, SOC Nervous system disorders, n (%) of subjects (E5501 Total, N=64): 3 (4.7) n (%)
Serious TEAE, SOC Vascular disorders, n (%) of subjects (E5501 Total, N=64): 1 (1.6) n (%)
Discontinued 501-CL-004, PC increase to ≧500,000/mm^3 (Full Analysis Set, Responders in previous study): 0 n
Abdominal pain upper, n of subjects [1]: 0
Any Serious TEAE, n (%) of subjects [1]: 1 (4.5) n (%)
Any TEAE, % of subjects [1]: (90.9) %
Any TEAE, n of subjects [1]: 20
Arthralgia, % of subjects [1]: (4.5) %
Arthralgia, n of subjects [1]: 1
Asthenia, % of subjects [1]: (13.6) %
Asthenia, n of subjects [1]: 3
Back pain, % of subjects [1]: (4.5) %
Back pain, n of subjects [1]: 1
Constipation, n of subjects [1]: 0
Contusion, % of subjects [1]: (13.6) %
Contusion, n of subjects [1]: 3
Cough, % of subjects [1]: (4.5) %
Cough, n of subjects [1]: 1
Deaths, n of subjects [1]: 0
Diarrhoea, % of subjects [1]: (13.6) %
Diarrhoea, n of subjects [1]: 3
Dizziness, % of subjects [1]: (4.5) %
Dizziness, n of subjects [1]: 1
Dose interruption due to TEAE, % of subjects [1]: (13.6) %
Dose interruption due to TEAE, n of subjects [1]: 3
Dyspnoea, % of subjects [1]: (9.1) %
Dyspnoea, n of subjects [1]: 2
Ecchymosis, n of subjects [1]: 0
Epistaxis, % of subjects [1]: (18.2) %
Epistaxis, n of subjects [1]: 4
Fatigue, % of subjects [1]: (36.4) %
Fatigue, n of subjects [1]: 8
Gingival bleeding, % of subjects [1]: (4.5) %
Gingival bleeding, n of subjects [1]: 1
Headache, % of subjects [1]: (18.2) %
Headache, n of subjects [1]: 4
Insomnia, % of subjects [1]: (4.5) %
Insomnia, n of subjects [1]: 1
Migraine, n of subjects [1]: 0
Mouth haemorrhage, n of subjects [1]: 0
Nausea, n of subjects [1]: 0
Pain in extremity, % of subjects [1]: (9.1) %
Pain in extremity, n of subjects [1]: 2
Petechiae, % of subjects [1]: (13.6) %
Petechiae, n of subjects [1]: 3
Platelet count increased, % of subjects [1]: (9.1) %
Platelet count increased, n of subjects [1]: 2
Serious TEAE Cerebrovascular accident, n (%) of subjects [1]: 0 n (%)
Serious TEAE Chest pain, n (%) of subjects [1]: 0 n (%)
Serious TEAE Diarrhoea, n (%) of subjects [1]: 0 n (%)
Serious TEAE Haemorrhage intracranial, n (%) of subjects [1]: 0 n (%)
Serious TEAE Lethargy, n (%) of subjects [1]: 0 n (%)
Serious TEAE Mitral valve incompetence, n (%) of subjects [1]: 0 n (%)
Serious TEAE Myocardial infarction, n (%) of subjects [1]: 0 n (%)
Serious TEAE Nausea, n (%) of subjects [1]: 0 n (%)
Serious TEAE Pelvic venous thrombosis, n (%) of subjects [1]: 0 n (%)
Serious TEAE Platelet count decreased, n (%) of subjects [1]: 0 n (%)
Serious TEAE Pneumonia, n (%) of subjects [1]: 0 n (%)
Serious TEAE Pyrexia, n (%) of subjects [1]: 0 n (%)
Serious TEAE Thrombocytopenia, n (%) of subjects [1]: 1 (4.5) n (%)
Serious TEAE Transient ischaemic attack, n (%) of subjects [1]: 0 n (%)
Serious TEAE Vomiting, n (%) of subjects [1]: 0 n (%)
Serious TEAE, % of subjects [1]: (4.5) %
Serious TEAE, SOC Blood and lymphatic system disorders, n (%) of subjects [1]: 1 (4.5) n (%)
Serious TEAE, SOC Cardiac disorders, n (%) of subjects [1]: 0 n (%)
Serious TEAE, SOC Gastrointestinal disorders, n (%) of subjects [1]: 0 n (%)
Serious TEAE, SOC General disorders and administration site conditions, n (%) of subjects [1]: 0 n (%)
Serious TEAE, SOC Infections and infestations, n (%) of subjects [1]: 0 n (%)
Serious TEAE, SOC Investigations, n (%) of subjects [1]: 0 n (%)
Serious TEAE, SOC Nervous system disorders, n (%) of subjects [1]: 0 n (%)
Serious TEAE, SOC Vascular disorders, n (%) of subjects [1]: 0 n (%)
